Data on 60 compounds can be found in PubChem BioAssay AID2765 (Broad Institute, 2010).

The assay concerns MEF A1-2A-BIM cells, caspase 3/7 luminescence, 3 h. Put plainly: inducers of caspase signal in A1-dependent MEFs – cell-based, luminescence, retest, A1 inhibitor project, dose response (AID 2765).

SMILES strings stand for the structures. The source made the active and inactive calls.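 Rule for the calls: active = half-maximal concentration for the rise in caspase light signal at or below ten times the top tested dose; inconclusive = flat fit between 30% and 70% activity, or unreliable curve fit; inactive = the rest.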

Regarding `COCCNC(=O)C(c1ccco1)N(C(=O)Cn1nnc2ccccc21)c1ccc(C)cc1C` (stereo not given), the EC50 is > 35 µM (inactive).

For the compound `CC(=O)c1cc(C#N)c(SCC(=O)Nc2nccs2)nc1C`, the EC50 was > 35 µM (inactive).

Turning to `COC(=O)C1=C(c2ccc(F)cc2F)C[C@@H]2CC[C@H]1N2C(=O)N1CCC(O)CC1`, the EC50 was > 35 µM (inactive).

As for `C[C@H](CO)N1C[C@H](C)[C@@H](CN(C)C(=O)NC2CCCCC2)Oc2c(NS(=O)(=O)c3cn(C)cn3)cccc2C1=O`, the EC50 was > 35 µM (inactive).

Take `O=C(Nc1ccc(Cl)cc1Cl)c1cccc(N2C(=O)C=CC2=O)c1`: the EC50 was > 35 µM (inactive).

For the compound `CCN1CCN(c2nc3ccccc3nc2NS(=O)(=O)c2ccc(NC(C)=O)cc2)CC1`, the EC50 was > 35 µM (inactive).

On to `CC(=O)c1ccc(NC(=O)CO/N=C(\C)c2cccs2)cc1`, for which the EC50 is > 35 µM (inactive).

`CCOC(=O)c1c(NC(=O)C2C3C=CC(C3)C2C(=O)O)sc2c1CCCC2` (stereo not given): the EC50 is > 35 µM (inactive).

For the compound `O=C(Nc1cc(Cl)ccc1N1CCOCC1)c1cccnc1`, the EC50 is > 35 µM (inactive).

For the compound `COc1cccc(-n2nnnc2S(C)(=O)=O)c1`, the EC50 was > 35 µM (inactive).

Consider `COC(=O)C(Cc1ccccc1)OS(N)(=O)=O` (stereo not given), for which the EC50 was > 35 µM (inactive).

In the case of `C[C@@H]1CN([C@@H](C)CO)C(=O)c2cc(NS(=O)(=O)c3ccc(Cl)cc3)ccc2O[C@H]1CN(C)Cc1ccncc1`, the EC50 was > 35 µM (inactive).

Take `COc1cc(/C=C(/C#N)C(=O)NCCc2c[nH]c3ccccc23)ccc1OCc1ccccc1F`: the EC50 is > 35 µM (inactive).

In the case of `COc1cc2ncnc(NCc3ccc(F)cc3)c2cc1OC`, the EC50 was > 35 µM (inactive).

Turning to `COc1ccc2[nH]c(C(=O)Nc3ccc(F)cc3Br)cc2c1`, the EC50 is > 35 µM (inactive).

For `CC/C(=C1/C(=O)CC(C)(C)C(C(=O)OC)C1=O)N1CCCC1` (stereo not given), the EC50 is > 35 µM (inactive).

Take `Cc1ccc(NC(=O)CN(C)S(=O)(=O)c2cnc[nH]2)c(C)c1`: the EC50 is > 35 µM (inactive).

Turning to `COc1cc2sc3ccc(C#Cc4ccc(N)cc4)cc3c(=O)c2cc1OC`, the EC50 is > 35 µM (inactive).

As for `Cc1ccccc1/C=C/C(=O)c1ccc([N+](=O)[O-])o1`, the EC50 was > 35 µM (inactive).

`O=C(NCCOC(=O)c1ccc(Cl)c(S(=O)(=O)N2CCCCC2)c1)c1ccncc1`: the EC50 is > 35 µM (inactive).

As to `CC(C)C(=O)Nc1cc(S(=O)(=O)N2CCOCC2)ccc1N1CCCCC1`, the EC50 was > 35 µM (inactive).

For the compound `CCc1cc(C(=O)OCC(=O)N2CCC(c3ccccc3)=N2)sc1C`, the EC50 was > 35 µM (inactive).

Turning to `NC(=S)NNC(=O)/C(=C/c1ccc(Br)cc1)NC(=O)c1ccccc1`, the EC50 was > 35 µM (inactive).

Take `O=C(NCNC(=O)NC1C(=O)NC(=O)N1CO)NC1C(=O)NC(=O)N1CO` (stereo not given): the EC50 is > 35 µM (inactive).

For the compound `COc1cc(Cl)c(C)cc1NC(=O)CSc1cc(Cl)ccc1Cl`, the EC50 is > 35 µM (inactive).

As for `COCCN(C(=O)CSc1nc2ccccc2c(=O)n1C(C)COC)c1c(N)n(Cc2ccccc2)c(=O)[nH]c1=O` (stereo not given), the EC50 is > 35 µM (inactive).

Regarding `Cc1cc(N2C(=O)C(O)=C(C(=O)c3cc4ccccc4o3)C2c2ccc(Br)cc2)no1` (stereo not given), the EC50 is > 35 µM (inactive).

With `CC(C)Oc1ccccc1C(=O)NC(CO)C(=O)O` (stereo not given), the EC50 is > 35 µM (inactive).

`CCN(CC)CCN(C(=O)c1cc2c(ccc3ccccc32)oc1=O)c1nc2cc3c(cc2s1)OCCO3`: the EC50 is 8.31 µM.

With `C=CCn1c(SCC(=O)NC23CC4CC(CC(C4)C2)C3)nc(O)cc1=O`, the EC50 was > 35 µM (inactive).

In the case of `Oc1ccc(C[C@H]2CNCCN2CCCCC2CCCCC2)cc1`, the EC50 is > 35 µM (inactive).

On to `CC(C)OC(=O)CN1C(=O)S/C(=C/c2ccc(N3CCCCC3)o2)C1=O`, for which the EC50 was > 35 µM (inactive).

Take `C=C1CCc2c([nH]c3ccc(OCC(C)C)cc23)C1=O`: the concentration for a half-maximal effect (EC50) is 15.1 µM.

Turning to `Cc1[nH]c(=S)c(C#N)c(C)c1Cc1ccc(Cl)cc1Cl`, the EC50 is > 35 µM (inactive).

As to `Cc1cccc(NC(=O)/C(C#N)=C/c2cn(CC(=O)NCc3ccco3)c3ccccc23)c1`, the EC50 is 21.7 µM.

For `COc1ccc(-n2ncc3c2CC(C)(C)CC3NC(=O)Cc2nonc2C)cc1` (stereo not given), the EC50 is > 35 µM (inactive).

As to `O=C(O)c1cccc(CSc2nc(-c3ccc(Cl)cc3)cc(C(F)(F)F)n2)c1`, the EC50 is > 35 µM (inactive).

For the compound `CCCNC(=O)N1[C@H]2CC[C@@H]1C(C(=O)OC)=C(c1c(C)noc1C)C2`, the EC50 was > 35 µM (inactive).

Turning to `c1ccc(-c2sc3ccccc3c2-c2ccc(OCCN3CCOCC3)cc2)cc1`, the EC50 was > 35 µM (inactive).

`O=C(Nc1ccc(-c2nc3cc(NC(=O)c4cccs4)ccc3o2)cc1)c1cccs1`: the EC50 is > 35 µM (inactive).

Regarding `Cc1ccc(C(C[N+](=O)[O-])c2c(C)[nH]n(-c3ccccc3)c2=O)cc1` (stereo not given), the EC50 is > 35 µM (inactive).

On to `O=C(C1=C[C@H](c2coc3ccccc3c2=O)C[C@H](OCc2ccc(CO)cc2)O1)N1CCN(Cc2ccccc2)CC1`, for which the EC50 was > 35 µM (inactive).

Turning to `N#Cc1c(C(F)(F)F)cc(-c2ccccc2)nc1SCC(=O)Nc1sc2c(c1C#N)CCC2`, the EC50 was > 35 µM (inactive).

`Cc1cc(C)cc(C(=O)N2CC(=O)Nc3ccccc32)c1`: the EC50 is > 35 µM (inactive).

In the case of `O=C(/C=C/c1ccc(F)cc1)NC(=S)Nc1ccccc1C(=O)NC1CCCCC1`, the EC50 is > 35 µM (inactive).

`Cc1cc(=O)oc2cc(OCCC[n+]3ccccc3)ccc12`: the EC50 was > 35 µM (inactive).

`C=CCOc1c2ccc(C(=O)N(CC)c3ccc(OC)cc3)cc2nn1C`: the EC50 was > 35 µM (inactive).

For the compound `C[C@H](CO)N1C[C@H](C)[C@@H](CN(C)CC2CCCCC2)Oc2c(NS(=O)(=O)c3cccs3)cccc2C1=O`, the EC50 is > 35 µM (inactive).

Regarding `CCn1c(SCC(=O)Nc2ccc(C(C)=O)cc2)nc2c([nH]c3ccccc32)c1=O`, the EC50 was 13 µM.

Turning to `COc1ccc(NC(=O)/C(Cl)=C(/Cl)S(=O)Cc2ccc(C)cc2)cn1` (stereo not given), the EC50 was > 35 µM (inactive).

For the compound `COc1ccc(CNC(=O)Cc2cccs2)cc1OC`, the EC50 was > 35 µM (inactive).

Turning to `O=Cc1cccc(OC(=O)c2ccc(Cl)cc2Cl)c1`, the EC50 is > 35 µM (inactive).

Take `N#CCn1nnc(-c2ccc3c(c2)OCO3)n1`: the EC50 was > 35 µM (inactive).

Regarding `O=C(COc1ccc(Br)cc1F)NCC1(N2CCCCC2)CCCCC1`, the EC50 was > 35 µM (inactive).

As for `CN(c1ccccc1C(=O)Nc1cccc(C(F)(F)F)c1)S(C)(=O)=O`, the EC50 was > 35 µM (inactive).

With `CN1CCc2cccc(Cl)c2CC1`, the EC50 was > 35 µM (inactive).

Turning to `O=S1(=O)C=C(Sc2nnc(-c3ccccc3)o2)c2ccccc21`, the EC50 was > 35 µM (inactive).

Consider `CN(CCc1ccccc1)C(=O)c1cccc(NC(=O)Cc2cccc([N+](=O)[O-])c2)c1`, for which the EC50 is > 35 µM (inactive).

On to `CC(C)CNC(=S)N(Cc1ccco1)Cc1cc2cc3c(cc2[nH]c1=O)OCCO3`, for which the EC50 was > 35 µM (inactive).

On to `CS(=O)(=O)c1nc(-c2ccco2)cc(C(F)(F)F)n1`, for which the EC50 is > 35 µM (inactive).

The term EC50 denotes the concentration needed to bring the measured effect to its halfway point.
